These results are taken from patent US20250326722A1 (SHANGHAI HANSOH BIOMEDICAL CO., LTD., priority 2022, published 2025).

One may read the Kd as the equilibrium constant for the complex coming apart. A higher Kd goes with a looser complex. As a reminder, the MRT is a mean duration of stay, worked out from the concentration-time curve. Usually IC50 stands for the concentration that gives 50% inhibition.

Data set [1] has as its system hyperlipidemia animal model of B6-hPCSK9 transgenic mice. Nature of the data set: In vivo pharmacodynamics in hyperlipidemia animal model of B6-hPCSK9 transgenic mice. Details: species or system B6-hPCSK9 transgenic C57 mice. As to conditions: PO administration, Day 14, high-fat feed. As to the method:
The compounds of the present disclosure were evaluated for in vivo pharmacodynamics in a hyperlipidemia animal model of B6-hPCSK9 transgenic mice.
B6-hPCSK9 transgenic C57 mice, 6-8 weeks old, male, purchased from Jiangsu GemPharmatech Co., Ltd.
After delivery to a barrier system, the animals were given one week for acclimatization and began to feed on the high-fat feed. The body weight and feed weight were weighed once a week, and the body weight and food intake thereof were recorded.
a. The animals were grouped by a random grouping method.
c. According to the grouping results, administration with the test drug was started (mode of administration: oral administration; administration volume: 10 mL/kg; frequency of administration: once/day or single administration; administration cycle: 21 days; vehicle: 10% Solutol HS 15/90% Saline).
d. After the test drug was administered, the body weight and feed weight were weighed twice a week and blood was taken once a week.
e. The data was processed with software such as Excel. […] PCSK9 in plasma was detected by ELISA.

In a further data set the target is PCSK9 protein (Homo sapiens (Human), UniProt Q8NBP7). Kind of data set: Binding experiment: surface plasmon resonance (SPR) binding to PCSK9 protein. From the text: • 1. Experimental objective: To detect the action of compounds to bind PCSK9 protein by a conventional surface plasmon resonance (SPR) method.
PCSK9 protein, sequence (Q8NBP7 153-692): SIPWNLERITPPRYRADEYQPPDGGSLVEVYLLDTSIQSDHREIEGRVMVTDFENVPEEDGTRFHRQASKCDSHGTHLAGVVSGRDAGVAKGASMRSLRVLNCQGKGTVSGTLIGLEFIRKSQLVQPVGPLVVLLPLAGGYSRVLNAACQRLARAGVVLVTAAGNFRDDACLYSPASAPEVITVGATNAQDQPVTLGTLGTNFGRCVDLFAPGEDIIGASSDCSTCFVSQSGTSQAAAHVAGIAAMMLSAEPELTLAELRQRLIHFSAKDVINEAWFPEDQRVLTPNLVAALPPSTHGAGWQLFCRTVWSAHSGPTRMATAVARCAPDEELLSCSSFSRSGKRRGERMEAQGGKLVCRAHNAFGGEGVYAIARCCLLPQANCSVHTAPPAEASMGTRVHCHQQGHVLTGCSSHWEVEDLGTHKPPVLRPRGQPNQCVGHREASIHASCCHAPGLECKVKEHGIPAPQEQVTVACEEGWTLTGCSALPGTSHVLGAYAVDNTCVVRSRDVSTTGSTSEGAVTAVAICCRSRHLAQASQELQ
On the technique in general: Surface plasmon resonance follows binding to a sensor surface in real time, without labels.

A short description of data set [2]: Pharmacokinetic determination in mice (plasma). As to conditions: C57 mice, PO administration, 5 mpk; for AUC(0-inf) / half-life / MRT / Cmax: male, C57BL/6J, mouse, 5 mg/kg; for AUC(0-inf): read-out: Area under the curve AUC0-∞; for half-life: read-out: Half-life t1/2 (converted); for MRT: read-out: Mean residence time MRT; for Cmax: read-out: Plasma concentration Cmax. Format: in vivo, C57BL/6J mice. A digest of the protocol:
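Male C57BL/6J mice (n=3 per route), fasted overnight, got 5 mg/kg PO in 10% Solutol HS15 or 1 mg/kg IV in 5% DMSO/10% Solutol HS15/85% PBS. Orbital blood was sampled at 0.083 (IV only), 0.25, 0.5, 1, 2, 4, 8 and 24 h. EDTA-K2 plasma was quantified by LC-MS/MS for PK parameters.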

Data set [3] concerns the target PCSK9 secreted by HepG2 cells (Homo sapiens (Human), UniProt Q8NBP7). Kind of data set: Effect on the concentration of PCSK9 secreted by HepG2 cells (ELISA). Format: cell-based. As to conditions: 48 hours incubation, read-out: Inhibitory activity on PCSK9, IC50. For orientation: An ELISA detects its analyte on a solid surface through an enzyme-linked reagent.
The next data set deals with LDL-C. As to conditions: combined with a statin; cited from earlier work.

PCSK9 secreted by HepG2 cells, sequence (Q8NBP7 153-692): as above
PCSK9 secreted by HepG2 cells, sequence (Q8NBP7 31-152 partner): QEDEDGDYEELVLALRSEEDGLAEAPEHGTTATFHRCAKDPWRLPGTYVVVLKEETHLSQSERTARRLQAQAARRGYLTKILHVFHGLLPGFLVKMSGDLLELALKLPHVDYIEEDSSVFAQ

As for `O=c1ccccn1-c1ccc(N[C@H]2CC[C@H](Nc3nc4cc(F)ccn4n3)C2)nc1` [Example 27, 6′-((3-(((1S,3S)-7-fluoro-[1,2,4]triazolo[1,5-a]pyridin-2-yl)amino)cyclopentyl)amino)-2H-[1,3′-bipyridinyl]-2-one], the “LDL-C change, Day 14” value in data set [1] (6 mpk) was −31.52%. This compound also showed a Kd at PCSK9 protein of 2.6 nM.

Take `O=C1c2ncccc2CN1c1ccc(N[C@H]2CC[C@H](Nc3nc4cc(C(F)(F)F)ccn4n3)C2)nc1` [Example 143, 6-(6-(((1S,3S)-3-((7-(trifluoromethyl)-[1,2,4]triazolo[1,5-a]pyridin-2-yl)amino)cyclopentyl)amino)pyridin-3-yl)-5,6-dihydro-7H-pyrrolo[3,4-b]pyridin-7-one]: in data set [1] (10 mpk), the “LDL-C change, Day 14” value is given as −34.97%. Further, in data set [2], the Time to peak tmax is 1 h, the AUC(0-inf) was found to be 11600 ng·h/mL, the half-life was 3.9 h and the MRT was found to be 2.2 h. Further, the Cmax in data set [2] came to 3870 ng/mL. Besides, the Kd at PCSK9 protein came to 1.2 nM.

For `Cc1nccc2c1CN(c1ccc(N[C@H]3CC[C@H](Nc4nc5cc(F)ccn5n4)C3)nc1)C2=O` [Example 149, 2-(6-(((1S,3S)-3-((7-fluoro-[1,2,4]triazolo[1,5-a]pyridin-2-yl)amino)cyclopentyl)amino)pyridin-3-yl)-4-methyl-2,3-dihydro-1H-pyrrolo[3,4-c]pyridin-1-one], the “LDL-C change, Day 14” value in data set [1] (10 mpk) is given as −41.65%. Also, in data set [3], the half-maximal inhibitory concentration (IC50) was found to be 15500 nM. In data set [2], the Time to peak tmax stood at 0.5 h, the AUC(0-inf) was 24200 ng·h/mL, the half-life is 4.8 h and the MRT was determined as 2.4 h. Besides, the Cmax in data set [2] is 12300 ng/mL. This compound registered an equilibrium dissociation constant (Kd) at PCSK9 protein of 1.4 nM.

With `Cc1cc2c(cn1)CN(c1ccc(N[C@H]3CC[C@H](Nc4nc5cc(C(F)(F)F)ccn5n4)C3)nc1)C2=O` [Example 156, 6-Methyl-2-(6-(((1S,3S)-3-((7-(trifluoromethyl)-[1,2,4]triazolo[1,5-a]pyridin-2-yl)amino)cyclopentyl)amino)pyridin-3-yl)-2,3-dihydro-1H-pyrrolo[3,4-c]pyridin-1-one], the “LDL-C change, Day 14” value in data set [1] (10 mpk) is on record as −25.97%. Moreover, the concentration for half-maximal inhibition (IC50) in data set [3] stood at 2100 nM. In data set [2], the Time to peak tmax amounted to 1 h, the AUC(0-inf) was 19700 ng·h/mL, the half-life was 3.6 h and the mean residence time MRT is 3.2 h. For the same compound, the Cmax in data set [2] came out at 5010 ng/mL. Moreover, the dissociation constant (Kd) on PCSK9 protein was 4.8 nM.

On to `O=C1[C@H](CC[C@H](O)c2ccc(F)cc2)[C@@H](c2ccc(O)cc2)N1c1ccc(F)cc1` [Ezetimibe], for which the LDL-C reduction in the data set with LDL-C is 15-20%.
